The numbers were not newly measured in patent publication US20230091009A1, “METHOD FOR PROMOTING GROWTH OF GAS-FERMENTED MICROORGANISMS” (HARBIN INSTITUTE OF TECHNOLOGY, SHENZHEN, priority 2021, published 2023), which cites them from elsewhere.

The conditions of the data set: ambient conditions, even in a supersaturated state.

With `[HH]` [hydrogen], the solubility in water result is on record as “about 0.79 mmol/l”.
